Data as given in paper doi:10.1101/2025.04.25.650653, “Hierarchical small molecule inhibition of MYST acetyltransferases” (bioRxiv, 2025).
Where “and” joins values, the source holds several entries; their conditions need not be identical. Equal entries are not always repeated.

System: histone modifications in MCF-7 cells
Test: Histone modification analysis by bottom-up LC-MS/MS
Assay type: cell-based
Conditions: Replicates 1-3
Description: In this approach. […] Histones are then extracted from cell pellets and chemically derivatized with propionic anhydride, digested with trypsin, subjected to a second round of propionylation, and analyzed by LC-MS/MS. Measuring the relative intensity of modified versus unmodified forms of individual histone peptides enables simultaneous monitoring of multiple potential biomarkers of MYST inhibition. To minimize false positives, we focused on abundant and reproducible modifications (average stoichiometry of greater than 1% across triplicate samples, standard deviation less than or equal to the average measurement). To account for potential histone modification crosstalk, changes in both acetylated and methylated peptides were evaluated. 38 modified peptides passed this reproducible detection threshold including several established KAT biomarkers[41] including H3K9Ac (KAT2A/B), H3K18Ac (KAT3A/B), H3K14Ac (KAT7), H3K23Ac (KAT6A/B), H4K16Ac (KAT8), and H2A.ZK4/K7Ac (KAT5; Fig. 4B).
Histone modification analysis
MCF-7 cells were cultured at 37 °C under 5% CO2 in EMEM (Quality Biological, 112-016-101) with 0.01 mg/mL human recombinant insulin (Sigma Aldrich, 91077C), 2 mM L-glutamine (Quality Biological, 118- […]
human recombinant insulin.
1119, WM-3835). Following 24 h inhibitor treatment, cells were washed with ice-cold 1× PBS and scraped in 150 µL of Nuclear Isolation Buffer (NIB) containing 0.1% NP-40 for histone extraction using a modified protocol from the Garcia laboratory. 9 Briefly, cell suspensions were incubated on ice for 5 minutes, and […]
nuclei were pelleted by centrifugation (600 rcf, 4°C, 5 min). Pelleted nuclei were washed twice with 150 μL of detergent-free NIB buffer, followed by centrifugation (600 rcf, 4°C, 5 min) to remove all detergent.
Nuclei were then resuspended in 400 μL of 0.4 N H₂SO₄ and rotated at 4°C overnight for acid extraction of histones. The following day, samples were centrifuged (11,000 rcf, 4°C, 10 min) and the histone-containing supernatant was transferred to a fresh tube. Trichloroacetic acid (100% TCA) was added to achieve a final concentration of 20% (v/v), tubes were inverted once to mix, and histone precipitation was performed on ice for at least 3 hours or overnight at 4°C. Precipitated histones were collected by centrifugation (11,000 rcf, 4°C, 10 min) and the supernatant carefully removed, leaving a visible film of histones on the tube wall or bottom. Histone pellets were subjected to sequential washes with 1 mL of ice-cold acidified acetone (0.1% 12 N HCl) followed by 1 mL of 100% ice-cold acetone, with centrifugation (11,000 rcf, 4°C, 5 min) after each wash. Samples were air-dried at room temperature, resuspended in 40 µL of ddH₂O, and protein […]
analysis, 1-2 µg of purified histones were loaded per lane and processed according to the general immunoblotting protocol described in General Materials and Methods.
Analysis of histone modifications by LC-MS/MS
Preparation of histone samples for LC-MS/MS was performed analogously to the procedure for immunoblotting above, with the following modifications. MCF7 cells (4.2 × 106) were seeded in 15 cm dishes and treated with PF-9363 or vehicle. Experiments were performed in triplicate. Following treatment and PBS washing, cells were scraped and collected in 15 mL falcon tubes, pelleted (500 rcf, 4°C, 5 min), resuspended in 1 mL cold PBS, transferred to microcentrifuge tubes, and pelleted again before flash-freezing in liquid nitrogen for storage at -80°C. For extraction, cell pellets (~100 μL) were resuspended in NIB buffer at a 1:10 ratio, and cells were lysed with NIB buffer containing 0.2% NP-40 for 8 minutes on ice. Nuclei were pelleted at 1,000 rcf for 8 minutes and washed three times with 500 μL detergent-free NIB buffer. Histones were extracted using 800 μL of 0.2 M H₂SO₄, and after centrifugation (3,400 rcf, 4°C, 10

Structure (SMILES): COc1cccc(OC)c1S(=O)(=O)Nc1noc2cc(Cn3cccn3)cc(OC)c12 [PF-9363]
- Ratio, H2A1_4_11 unmod (PF-9363 1): 0.8988 and 0.8885 and 0.9043
- Ratio, H2A1_36_42 unmod (PF-9363 1): 0.9987 (2×) and 0.999
- Ratio, H2A3_36_42 unmod (PF-9363 1): 1
- Ratio, H2AJ_4_11 K5acK9ac (PF-9363 1): 0.8841 and 0.8218 and 0.8897
- Ratio, H2AV_1_19 K4ac (PF-9363 1): 0.04613 and 0.03379 and 0.05235
- Ratio, H2AV_1_19 unmod (PF-9363 1): 0.7904 and 0.9003 and 0.7876
- Ratio, H2AX_4_11 unmod (PF-9363 1): 0.3103 and 0.2578 and 0.2996
- Ratio, H2AX_36_42 unmod (PF-9363 1): 1
- Ratio, H2AZ_1_19 K11ac (PF-9363 1): 0.007104 and 0.02367 and 0.02119
- Ratio, H2AZ_1_19 unmod (PF-9363 1): 0.8748 and 0.8677 and 0.8766
- Ratio, H3_73_83 K79me1 (PF-9363 1): 0.08571 and 0.09293 and 0.08865
- Ratio, H3_73_83 K79me2 (PF-9363 1): 0.07582 and 0.06553 and 0.05074
- Ratio, H3_73_83 unmod (PF-9363 1): 0.8373 and 0.84 and 0.8592
- Ratio, H4_4_17 K12acK16ac (PF-9363 1): 0.009843 and 0.01149 and 0.01038
- Ratio, H4_4_17 unmod (PF-9363 1): 0.6943 and 0.6691 and 0.6837
- Ratio, H4_20_23 K20me1 (PF-9363 1): 0.04112 and 0.02779 and 0.03237
- Ratio, H4_20_23 unmod (PF-9363 1): 0.02967 and 0.03053 and 0.03337
- Ratio, H2A1_1_11 K5ac (PF-9363 10): 0.7349 and 0.6528 and 0.8541
- Ratio, H2A1_4_11 K5ac (PF-9363 10): 0.05941 and 0.05561 and 0.05439
- Ratio, H2A1_4_11 K9ac (PF-9363 10): 0.0376 and 0.02679 and 0.04578
- Ratio, H2A1_4_11 unmod (PF-9363 10): 0.8844 and 0.9105 and 0.8938
- Ratio, H2A1_36_42 unmod (PF-9363 10): 0.9994 and 0.9989 and 0.9987
- Ratio, H2A3_36_42 unmod (PF-9363 10): 1
- Ratio, H2AJ_4_11 K5acK9ac (PF-9363 10): 0.87 and 0.9304 and 0.8571
- Ratio, H2AV_1_19 K4ac (PF-9363 10): 0.03545 and 0 and 0.04516
- Ratio, H2AV_1_19 unmod (PF-9363 10): 0.7519 and 0 and 0.8693
- Ratio, H2AX_4_11 unmod (PF-9363 10): 0.3078 and 0.3089 and 0.315
- Ratio, H2AX_36_42 unmod (PF-9363 10): 0.9999 and 1 (2×)
- Ratio, H2AZ_1_19 K11ac (PF-9363 10): 0.002627 and 0 and 0.03573
- Ratio, H2AZ_1_19 unmod (PF-9363 10): 0.8481 and 0 and 0.8795
- Ratio, H3_73_83 K79me1 (PF-9363 10): 0.0968 and 0.09055 and 0.1061
- Ratio, H3_73_83 K79me2 (PF-9363 10): 0.04989 and 0 and 0.05862
- Ratio, H3_73_83 unmod (PF-9363 10): 0.8517 and 0.9094 and 0.8343
- Ratio, H4_4_17 K12acK16ac (PF-9363 10): 0.004929 and 0.3101 and 0.006064
- Ratio, H4_4_17 unmod (PF-9363 10): 0.8097 and 0 and 0.7957
- Ratio, H4_20_23 K20me1 (PF-9363 10): 0.03215 and 0 and 0.02863
- Ratio, H4_20_23 unmod (PF-9363 10): 0.01905 and 0.02691 and 0.02102
- Ratio, H2A1_1_11 K5ac (PF-9363 30): 0.8425 and 0.9367 and 0.7907
- Ratio, H2A1_4_11 K5ac (PF-9363 30): 0.04965 and 0.0448 and 0.04948
- Ratio, H2A1_4_11 K9ac (PF-9363 30): 0.02646 and 0.04262 and 0.03503
- Ratio, H2A1_4_11 unmod (PF-9363 30): 0.9191 and 0.9063 and 0.9088
- Ratio, H2A1_36_42 unmod (PF-9363 30): 0.9989 and 0.9987 and 0.9988
- Ratio, H2A3_36_42 unmod (PF-9363 30): 1
- Ratio, H2AJ_4_11 K5acK9ac (PF-9363 30): 0.9299 and 0.8746 and 0.8721
- Ratio, H2AV_1_19 K4ac (PF-9363 30): 0.04726 and 0.04134 and 0.0354
- Ratio, H2AV_1_19 unmod (PF-9363 30): 0.8732 and 0.735 and 0.7339
- Ratio, H2AX_4_11 unmod (PF-9363 30): 0.3537 and 0.3214 and 0.3151
- Ratio, H2AX_36_42 unmod (PF-9363 30): 1
- Ratio, H2AZ_1_19 K11ac (PF-9363 30): 0 and 0.03845 and 0.003881
- Ratio, H2AZ_1_19 unmod (PF-9363 30): 1 and 0.8991 and 0.9454
- Ratio, H3_73_83 K79me1 (PF-9363 30): 0.07412 and 0.08491 and 0.08741
- Ratio, H3_73_83 K79me2 (PF-9363 30): 0.05912 and 0.06141 and 0.04678
- Ratio, H3_73_83 unmod (PF-9363 30): 0.865 and 0.8523 and 0.8643
- Ratio, H4_4_17 K12acK16ac (PF-9363 30): 0.3308 and 0.002262 and 0.2125
- Ratio, H4_4_17 unmod (PF-9363 30): 0.05921 and 0.8851 and 0.358
- Ratio, H4_20_23 K20me1 (PF-9363 30): 0 and 0.03437 and 0.03685
- Ratio, H4_20_23 unmod (PF-9363 30): 0.02728 and 0.02218 and 0.01429
